Experimental data published in patent publication US10864168B2, “Bioactive delivery vehicles” (The Regents of the University of California, priority 2014, dated 2020).

Legend:
porcine skin = experiment: Nile Red release from yeast encapsulation system into porcine skin; settings: yeast microcapsules loaded with Nile Red; room temperature, 12 hours
Method: The Nile Red fluorescence signal contrast of porcine skin incubated with yeast encapsulation system and non-incubated porcine skin was evaluated. Yeast microcapsules were loaded with Nile Red dye and spread on porcine skin surface. After incubation at room temperature for 12 hours, fluorescence images were taken on the 20 μm-thick slice of tissue cross-section. The results are depicted in FIG. 17. […] This encapsulation system thus provides an option for convenient, pain-free and efficient compound delivery, which can be self-administered and operate as an alternative to oral dosing or injections.

inactivated yeast = experiment: Encapsulation of bioactives into inactivated yeast cells (conventional diffusion, vacuum infusion, pressure); assay type: physicochemical, Saccharomyces cerevisiae
Source text: Prior to encapsulation of bioactives, selected strains of both yeast and algal cells are inactivated with a chemical treatment. Chemical inactivation of yeast or algal cells stops the metabolic processes while preserving the structure and chemical composition of the cells. […] The concentration of ethanol is selected based on the results of the previous study. Briefly, 1 gm of yeast or algal cells pellet is suspended in the 35% ethanolic solution of the selected bioactive compound. […] We have determined the % ethanol to achieve sufficient encapsulation of the selected encapsulated bioactive compounds using both the vacuum and high pressure assisted encapsulation process. Yeast or algal cell samples suspended in the ethanolic solution with the bioactive compound are sealed in boilable vacuum bags (Prime Source) at 99% vacuum (Ultravac 250, Koch Equipment LLC). […] The sealed samples are covered with aluminum foil to prevent any photo-degradation of the bioactives and incubated at room temperature (25° C.) for 10 minutes. Samples are emptied into 50 mL centrifuge tubes, centrifuged at 2200 rpm for 10 minutes to pellet the cells and the pelleted cells are washed twice with ethanolic solution (35%) and then five times with excess water to remove unencapsulated bioactives. […] Samples are emptied into 50 mL centrifuge tubes, centrifuged to pellet the cells (2200 rpm for 10 minutes) and the pelleted cells are washed twice with ethanolic solution (35%) and then five times with excess water to remove unencapsulated bioactives. Briefly, yeast or algal samples in a 35% ethanolic solution of the selected bioactive compound are covered with a single layer of aluminum foil to prevent photolysis. Samples are then placed into a rotary incubator at 50° C. and 200 rpm for 24 hours. After removal from the incubator, cells are removed by centrifugation at 2000 rpm for 10 minutes. The supernatant is decanted to isolate the pelleted cells and the pelleted cells are washed as described above to remove unencapsulated bioactives. Cells are sonicated to disrupt the cellular structure. A methanol extraction is utilized to extract the encapsulated bioactives from the disrupted yeast or algal cells. 0.05 g of cells (wet basis) with encapsulated bioactives are sonicated to disrupt cellular structure and subsequently incubated with 1 mL methanol. Samples are then briefly vortexed and centrifuged at 14,000 rpm for 10 minutes. The concentration of bioactive compound dissolved in the organic phase is measured using UV-vis spectrophotometer. […] Measuring loading of these bioactive compounds in various emulsions and nanoparticles has been described. The encapsulation efficiency is determined as follows: [formula] where CE is the mass of extracted bioactive from the cells after encapsulation and CT is the amount of bioactive initially added to the cells. We have developed an innovative bioencapsulation process that provides rapid and efficient infusion of bioactives in isolated cells and lipid bodies. In this process, yeast or algal cells incubated in a solution containing bioactive were subjected to a vacuum (97% vacuum) or mild-high hydrostatic pressure (35-100 MPa) for ˜5-10 minutes. […] The results of these measurements were compared with the conventional process used for encapsulation of bioactive compounds in yeast cells.

E. coli (BL21) = experiment: Encapsulation efficiency into bacteria by vacuum infusion; assay type: physicochemical; settings: vacuum infused, 35% ethanol
L. casei (S1) = experiment: as above; assay type: physicochemical, Lactobacillus casei; settings: vacuum infused, 35% ethanol
[1] = Storage stability of encapsulated retinol at room temperature, exposure to atmospheric oxygen; assay type: physicochemical; settings: cell-based encapsulants / lipid membrane microcapsules
Source text: FIG. 10 illustrates stability of retinol encapsulated yeast cells as compared to retinol in emulsion and nanoparticles at room temperature. Stability of all-trans retinol encapsulated in casein stabilized emulsion, zein nanoparticles and yeast cells. The percent recovery of retinol in model systems after exposure to atmospheric oxygen is shown. Yeast cells provided the most stability to retinol, nearly 100% up to 5 days, while zein and casein systems have <10% after 4 days.
Retinol was selected as a model bioactive as it is highly susceptible to oxidative degradation at room temperature.

[2] = Thermal stability of retinol, cell encapsulated versus emulsions; assay type: physicochemical; settings: vacuum and/or HPP infusion methods, compared to emulsions
Method: Comparative percent recovery of retinol in emulsions and yeast after processing at 70° C. for 30 minutes. The retinol was extracted using methanol and the absorbance was measured at 325 nm.

[3] = 100 mM PBS, pH = 6.5, Conventional Diffusion, saturated solution, 35% v/v ethanol
[4] = 100 mM PBS, pH = 6.5, HPP (200 MPa), saturated solution, 35% v/v ethanol
[5] = 100 mM PBS, pH = 6.5, Vacuum Infusion, saturated solution, 35% v/v ethanol
[6] = 2% Tween 20 in 100 mM Tris Buffer, pH = 8, Conventional Diffusion, saturated solution, 35% v/v ethanol
[7] = 2% Tween 20 in 100 mM Tris Buffer, pH = 8, HPP (200 MPa), saturated solution, 35% v/v ethanol
[8] = 2% Tween 20 in 100 mM Tris Buffer, pH = 8, Vacuum Infusion, saturated solution, 35% v/v ethanol
[9] = Conventional Diffusion, Single Loading
[10] = Vacuum, Dual Loading (curcumin and fisetin added together)
[11] = commercial yeast, 1 vacuum cycle, 35% ethanol
[12] = commercial yeast, 3 cycles of 99% vacuum, 5 min incubation between, no additional fisetin added
[13] = inactivated yeast, Conventional Methods, 24 hours, 50° C.
[14] = inactivated yeast, Mild Pressure (35 Mpa), 10 minutes
[15] = inactivated yeast, Vacuum (5 minutes)

Structure (SMILES): CCN(CC)c1ccc2nc3c4ccccc4c(=O)cc-3oc2c1 [Nile Red]
- release and permeation into porcine skin (porcine skin): effectively released from yeast cells, further permeated crossing the stratum corneum and reached the dermis layer

Structure (SMILES): O=c1c(O)c(-c2ccc(O)c(O)c2)oc2cc(O)ccc12 [Fisetin, fisetin]
- Encapsulation Efficiency (inactivated yeast; [3]): 42.6%
- Mass of Encapsulated Bioactive in Yeast (inactivated yeast; [3]): 1.11 mg/g
- Encapsulation Efficiency (inactivated yeast; [4]): 99.3%
- Mass of Encapsulated Bioactive in Yeast (inactivated yeast; [4]): 2.59 mg/g
- Encapsulation Efficiency (inactivated yeast; [5]): 105.3%
- Mass of Encapsulated Bioactive in Yeast (inactivated yeast; [5]): 2.75 mg/g
- Encapsulation Efficiency (inactivated yeast; [6]): 58.7%
- Mass of Encapsulated Bioactive in Yeast (inactivated yeast; [6]): 2.31 mg/g
- Encapsulation Efficiency (inactivated yeast; [7]): 54.8%
- Mass of Encapsulated Bioactive in Yeast (inactivated yeast; [7]): 2.16 mg/g
- Encapsulation Efficiency (inactivated yeast; [8]): 80.7%
- Mass of Encapsulated Bioactive in Yeast (inactivated yeast; [8]): 3.18 mg/g
- Encapsulation Efficiency (inactivated yeast; [9]): 12.2%
- Mass of Encapsulated Bioactive in Yeast (inactivated yeast; [9]): 0.061 mg/g
- Encapsulation Efficiency (inactivated yeast; [10]): 96.0%
- Mass of Encapsulated Bioactive in Yeast (inactivated yeast; [10]): 0.480 mg/g
- Encapsulated Efficiency (inactivated yeast; [11]): 69.5%
- Mass of Encapsulated Bioactive in Yeast (inactivated yeast; [11]): 3.65 mg/g
- Encapsulated Efficiency (inactivated yeast; [12]): 76.4%
- Mass of Encapsulated Bioactive in Yeast (inactivated yeast; [12]): 4.01 mg/g
- encapsulation efficiency (percent ratio of encapsulated bioactive with respect to total bioactive in solution) (inactivated yeast; [13]): 11%
- encapsulation efficiency (percent ratio of encapsulated bioactive with respect to total bioactive in solution) (inactivated yeast; [14]): 68%
- encapsulation efficiency (percent ratio of encapsulated bioactive with respect to total bioactive in solution) (inactivated yeast; [15]): 64%
- encapsulation efficiency relative to conventional diffusion techniques (inactivated yeast; inactivated yeast, vacuum or HPP): 1.4-2.3 ×
- Encapsulation Efficiency (E. coli (BL21)): 30.8%
- Mass of Encapsulated Bioactive in Bacteria (E. coli (BL21)): 1.619 mg/g
- Encapsulation Efficiency (L. casei (S1)): 43.2%
- Mass of Encapsulated Bioactive in Bacteria (L. casei (S1)): 2.271 mg/g

Structure (SMILES): CC1=C(/C=C/C(C)=C/C=C/C(C)=C/CO)C(C)(C)CCC1 [Retinol, retinol]
- encapsulation efficiency (percent ratio of encapsulated bioactive with respect to total bioactive in solution) (inactivated yeast; [13]): 15%
- encapsulation efficiency (percent ratio of encapsulated bioactive with respect to total bioactive in solution) (inactivated yeast; [14]): 70%
- encapsulation efficiency (percent ratio of encapsulated bioactive with respect to total bioactive in solution) (inactivated yeast; [15]): 45%
- improvement of storage stability as compared to other encapsulation systems, including nanoparticles and emulsions [1]: at least 5 fold
- reduction of loss of retinol during thermal processing [2]: 25-30%
